Measurements from publication PMC2441954, “Phase I pharmacokinetic and pharmacodynamic study of the prenyl transferase inhibitor AZD3409 in patients with advanced cancer” (British Journal of Cancer, 2008).
pKi: −log10 of the molar value.

Assays:
GGTase-1 = biological target: GGTase-1; set-up: method as in Stephens et al, 2003; conditions: Ki4B-Ras as substrate; ref Stephens et al, 2003; cited from earlier work
[1] = Phase I dose escalation, toxicity (CTC v2.0) in patients with advanced solid malignancies; type: in vivo
Protocol: The study was divided into two parts. Part A was an open-label dose-escalation study to define the maximum tolerated dose (MTD). Part B was an enrichment phase in female patients having advanced breast cancer for whom there was no standard therapy available.
AZD3409 was administered continuously starting on day 1 of each cycle of 21 days. A modified Fibonacci schedule was used for dose escalation, starting from 500 mg AZD3409. […] At least three patients were treated at each dose level. The occurrence of a DLT in a patient during the first cycle led to enrolment of three additional patients. Patients with progressive disease were removed from the study and patients who were removed within the first cycle of the study for reasons other than drug-related toxicity were replaced.
Pretreatment evaluation included a complete medical history and physical examination. Measurable and evaluable disease was documented before the start of the study and during the study as a basis for the assessment of clinical activity of the treatment. Tumour response was recorded according to RECIST criteria ([Therasse et al, 2000]). Toxicity was monitored at each visit. […] DLT was defined as any of the following events during the first treatment cycle: grade 3 or 4 anaemia or thrombocytopaenia, febrile neutropaenia grade 3, or grade 4 neutropaenia, grade 3 or 4 biochemical toxicity, grade 2 (or worse) nausea and vomiting despite optimal antiemetic therapy, grade 3 or 4 diarrhoea despite optimal loperamide support, failure to take study medication for 7 days or more within the first treatment cycle due to drug-related toxicity or any CTC grade 3 or 4 nonhaematological toxicity (excluding alopaecia). The MTD was defined as the dose below the dose at which two or three of three, or two or more of six patients experienced DLT during cycle 1.

FTase = biological target: FTase; set-up: method as in Stephens et al, 2003; conditions: Ki4B-Ras as substrate; ref Stephens et al, 2003; cited from earlier work
[2] = set-up: method as in Kelly et al, 2005; conditions: rats, oral dosing, pilot mass balance study; ref Kelly et al, 2005; cited from earlier work
Calu-6 xenograft = tested on: Calu-6 xenograft; set-up: method as in unpublished data; conditions: Calu-6 xenograft model, ref unpublished data, cited from earlier work
[3] = tested on: RT-112 urothelial cells xenografts; set-up: method as in Stephens et al, 2003; Kelly et al, 2005; conditions: mice bearing RT-112 xenografts; ref Stephens et al, 2003; Kelly et al, 2005; cited from earlier work
[4] = tested on: H-Ras-transformed mouse 3T3 fibroblasts (Hras5) xenografts; set-up: method as in Stephens et al, 2003; Kelly et al, 2005; conditions: mice bearing Hras5 xenografts; ref Stephens et al, 2003; Kelly et al, 2005; cited from earlier work
tumour cells = tested on: tumour cells; set-up: method as in Kelly et al, 2005; conditions: in vitro; corresponds to the μM values; ref Kelly et al, 2005; cited from earlier work
cytochrome P450 = tested on: cytochrome P450; set-up: method as in unpublished data; conditions: once daily oral dosing to rats for 28 days; ref unpublished data; cited from earlier work
solid malignant tumour = test: Tumour response (RECIST) in phase I patients; type: in vivo, human
Protocol: Pretreatment evaluation included a complete medical history and physical examination. Measurable and evaluable disease was documented before the start of the study and during the study as a basis for the assessment of clinical activity of the treatment. Tumour response was recorded according to RECIST criteria ([Therasse et al, 2000]). Toxicity was monitored at each visit. All toxicities observed were graded according to the Common Toxicity Criteria, version 2.0 ([National Cancer Institute, 1998]). DLT was defined as any of the following events during the first treatment cycle: grade 3 or 4 anaemia or thrombocytopaenia, febrile neutropaenia grade 3, or grade 4 neutropaenia, grade 3 or 4 biochemical toxicity, grade 2 (or worse) nausea and vomiting despite optimal antiemetic therapy, grade 3 or 4 diarrhoea despite optimal loperamide support, failure to take study medication for 7 days or more within the first treatment cycle due to drug-related toxicity or any CTC grade 3 or 4 nonhaematological toxicity (excluding alopaecia). The MTD was defined as the dose below the dose at which two or three of three, or two or more of six patients experienced DLT during cycle 1.

[5] = tested on: 253J-BV urothelial cells xenografts; set-up: method as in Stephens et al, 2003; Kelly et al, 2005; conditions: mice bearing 253J-BV xenografts; ref Stephens et al, 2003; Kelly et al, 2005; cited from earlier work
[6] = healthy male volunteers; earlier trial, no reference given; cited from earlier work
[7] = all dose levels, drug-related nonhaematological toxicity
[8] = cycle 1, 250 mg b.i.d. (part B, fed state), 3 patients
[9] = cycle 1, 750 mg b.i.d., 8 patients
[10] = cycle 1, 1250 mg b.i.d., 6 patients
[11] = cycle 1, 1500 mg b.i.d., 2 patients
[12] = cycle 1, 1750 mg b.i.d., 4 patients
[13] = cycle 1, all doses, 29 patients

In the case of `CSCC[C@H](NC(=O)c1cc(NC[C@@H]2C[C@H](S)CN2)ccc1CCc1ccc(F)cc1)C(=O)O` [AZD3409 acid], the pKi (GGTase-1) is listed as 8.10, the “chance to suffer from vomiting (grade 1–2) due to the medication” value ([1]; at maximal AZD3409 acid plasma concentrations up to 140 ng ml^−1, cycle 1, n=22) is listed as “below 15%” and the pKi (FTase) is listed as greater than 9.00.

For `CSCC[C@H](NC(=O)c1cc(NC[C@@H]2C[C@H](SC(=O)c3cccnc3)CN2)ccc1CCc1ccc(F)cc1)C(=O)OC(C)C` [AZD3409], the “given radioactivity excreted in the urine” value [2] is listed as 1%, the “reduction of the tumour volume” value (Calu-6 xenograft; associated with 66% FTase inhibition) is listed as 15% and the “inhibition of FTase” value (Calu-6 xenograft) is listed as 66%. The tumour weight [3] was “significant reduction of tumour weight”, the tumour weight [4] was “significant reduction of tumour weight” and the “IC50 inhibition of cell proliferation of tumour cells, converted” value (tumour cells) was 0.035 to 3.5 µg/mL. For the same compound, the “changes in cytochrome P450 content or enzyme activity” value (cytochrome P450) was “no biologically significant changes”, the “dose-limiting gastrointestinal toxicity (grade 3 diarrhoea, grade 3 dehydration, grade 2/3 nausea, grade 2 vomiting)” value ([1]; 1250 mg b.i.d.) was “three out of six patients” and the “dose-limiting toxicity: unable to continue due to grade 3 diarrhoea and uncontrolled nausea (grade 2), respectively” value ([1]; 1500 mg b.i.d.) was “two patients”. The “dose-limiting toxicity: unable to take the drug due to CTC grade 2 vomiting in spite of antiemetics” value ([1]; 1750 mg b.i.d.) was “two patients”, the “diarrhoea, patients reporting” value [1, 7] was 41% and the “nausea, patients reporting” value [1, 7] was 55%. The “vomiting, patients reporting” value [1, 7] was 55%, the haematological toxicity ([1]; cycle 1, 29 evaluable patients) was “No significant haematological toxicity” and the “Nausea grade 1–2, number of patients” value [1, 8] was 1. The “Vomiting grade 1–2, number of patients” value [1, 8] was 2, the “Anorexia grade 1–2, number of patients” value ([1]; cycle 1, 500 mg, 3 patients) was 1 and the “Fatigue grade 1–2, number of patients” value ([1]; cycle 1, 500 mg, 3 patients) was 1. For the same compound, the “Nausea grade 1–2, number of patients” value ([1]; cycle 1, 500 mg, 3 patients) was 1, the “Vomiting grade 1–2, number of patients” value ([1]; cycle 1, 500 mg, 3 patients) was 1 and the “Abdominal pain grade 1–2, number of patients” value [1, 9] was 1. For the same compound, the “Anorexia grade 1–2, number of patients” value [1, 9] was 2, the “Diarrhoea grade 1–2, number of patients” value [1, 9] was 3 and the “Fatigue grade 1–2, number of patients” value [1, 9] was 2. For the same compound, the “Nausea grade 1–2, number of patients” value [1, 9] was 5, the “Vomiting grade 1–2, number of patients” value [1, 9] was 4 and the “Diarrhoea grade 1–2, number of patients” value ([1]; cycle 1, 1000 mg, 3 patients) was 3. The “Nausea grade 1–2, number of patients” value ([1]; cycle 1, 1000 mg, 3 patients) was 2, the “Vomiting grade 1–2, number of patients” value ([1]; cycle 1, 1000 mg, 3 patients) was 2 and the “Abdominal pain grade 1–2, number of patients” value [1, 10] was 2. The “Anorexia grade 1–2, number of patients” value [1, 10] was 1, the “Diarrhoea grade 1–2, number of patients” value [1, 10] was 2 and the “Diarrhoea grade 3–4, number of patients” value [1, 10] was 1. The “Fatigue grade 1–2, number of patients” value [1, 10] was 1, the “Nausea grade 1–2, number of patients” value [1, 10] was 3 and the “Nausea grade 3–4, number of patients” value [1, 10] was 1. The “Vomiting grade 1–2, number of patients” value [1, 10] was 3, the “Diarrhoea grade 3–4, number of patients” value [1, 11] was 1 and the “Nausea grade 1–2, number of patients” value [1, 11] was 1. The “Vomiting grade 1–2, number of patients” value [1, 11] was 1, the “Anorexia grade 1–2, number of patients” value [1, 12] was 2 and the “Diarrhoea grade 1–2, number of patients” value [1, 12] was 4. For the same compound, the “Fatigue grade 1–2, number of patients” value [1, 12] was 1, the “Nausea grade 1–2, number of patients” value [1, 12] was 3 and the “Vomiting grade 1–2, number of patients” value [1, 12] was 3. For the same compound, the “Abdominal pain grade 1–2, total” value [1, 13] was 3 (10) n (%), the “Anorexia grade 1–2, total” value [1, 13] was 6 (21) n (%) and the “Diarrhoea grade 1–2, total” value [1, 13] was 12 (41) n (%). The “Diarrhoea grade 3–4, total” value [1, 13] was 2 (7) n (%), the “Fatigue grade 1–2, total” value [1, 13] was 5 (17) n (%) and the “Nausea grade 1–2, total” value [1, 13] was 16 (55) n (%). For the same compound, the “Nausea grade 3–4, total” value [1, 13] was 1 (3) n (%), the “Vomiting grade 1–2, total” value [1, 13] was 16 (55) n (%) and the “MTD of part A” value ([1]; patients, fasted state, continuous oral dosing) was 750 mg b.i.d. For the same compound, the objective tumour response (solid malignant tumour; 18 evaluable patients after 4–14 weeks of treatment) was “No objective tumour response was observed”, the “patients with stable disease” value (solid malignant tumour; out of 16 patients, after approximately 2 months) was 3 and the “patients with stable disease” value (solid malignant tumour; three of 18 evaluable patients, stable for 47, 48 and 76 days) was 17%. For the same compound, the tumour weight [5] was “significant reduction of tumour weight”, the “dose at which diarrhoea was dose limiting” value [6] was 2500 mg once daily and the “maximum tolerated single dose” value [6] was 1750 mg.
